According to patent US6902881B2, “Compounds and methods for regulating cell differentiation” (priority 2000, dated 2005):

What was measured:
[1] = system: retinoid signaling system (RAR or RXR); test: Use of the retinoid signaling system
[2] = system: liposarcoma (LS) cells; test: Proliferation of liposarcoma cells; format: cell-based, human
[3] = system: control fertilized oocytes unexposed to UV light; test: Development of control embryos unexposed to UV light incubated with the compounds (dysmorphogen test); details: control fertilized oocytes unexposed to UV light incubated with the compound
Protocol: (§1) Several hundred spawned eggs were fertilized in vitro and incubated at 16 to 18° C. […] The vegetal surfaces of some of these embryos were irradiated with one or the other sources of UV light within 10 min of fertilization for 20-30 min. […] The embryos were not disturbed, touched or tipped from the moment of fertilization, during UV irradiation or for the duration of development. […] A score of 5 defines a normal dorsal axis, 4 a microcephalic, 3 a cyclopic, 2 an anoptic, 1 an acephalic and 0 an adorsal embryo.
The biological activities of biliverdin and its derivatives were tested by adding each of them to the incubation solution of embryos after the termination of the UV light exposure to either 254 or 366 nm UV light and at selected time periods between T ƒfm=0.4-2.5. Final concentrations of biliverdin ranged from 0.05 to 5 μM in less than 1% ethanol. […] The extent of dorsal axis formation was analyzed by the morphological criteria described above.
Stage 1 embryos were exposed to UV-light source emitting at 366 nm (Mineralight UVSL-58, Ultraviolet Products, Inc., San Gabriel, Calif.) as described and then incubated in the presence of pure candidate DCD or commercially available biliverdin (Sigma-Aldrich, St. Louis, Mo.) at final concentrations from 0.05 to 1.2 μM in less than 1% ethanol. The concentrations were calculated using a molar extinction coefficient of 51,000. […]

[4] = system: Colon Adenocarcinoma (HT 29) cells; test: Cellular triacyl glycerol (TAG) content, colon adenocarcinoma; format: cell-based, human; details: biliverdin 4 × 10^−7 M
Protocol: Expression of differentiation markers. Carcinoembryogenic antigen in cell supernatants collected each three days was assayed by standard ELISA determinations using an IMX assay for quantitative measurement of the antigen. Cellular triacyl glycerol content was measured spectrophotometrically by enzymatic hydrolysis and analysis of the amount of glycerol released using a standard assay, Triglyceride (INT) 10 (Sigma Diagnostics). Cellular alkaline phosphatase activity was determined by measuring the fluorescence change induced by the hydrolysis of 4-methylumbelliferylphosphate. The fluorescence is detected at 450 nm with an excitation of 365 nm, using a Jobin Ivon-Spex Fluoro Max-2 fluorimeter. The alkaline phosphatase activity detected was expressed in units of μmol/mg protein/min.

[5] = system: Normal Fibroblast (3T3-L1 fibroblasts); test: Cellular triacyl glycerol (TAG) content, normal fibroblast; format: cell-based; details: 3T3-L1 fibroblasts with insulin
Protocol: Expression of differentiation markers. Carcinoembryogenic antigen in cell supernatants collected each three days was assayed by standard ELISA determinations using an IMX assay for quantitative measurement of the antigen. Cellular triacyl glycerol content was measured spectrophotometrically by enzymatic hydrolysis and analysis of the amount of glycerol released using a standard assay, Triglyceride (INT) 10 (Sigma Diagnostics). […] The fluorescence is detected at 450 nm with an excitation of 365 nm, using a Jobin Ivon-Spex Fluoro Max-2 fluorimeter. The alkaline phosphatase activity detected was expressed in units of μmol/mg protein/min. These compounds also affect the timing for the fat accumulation. After 9 days of incubation with insulin and bovine pituitary extract, but without biliverdin, the fat droplets in the cells are small and scattered diffusely throughout the cell. These globules continue to enlarge to fill most of the cytoplasmic space by day 14. In contrast, by day 7 the cells incubated in the presence of biliverdin already contain large, grouped and prominent droplets. While the triacyl glycerol content increases in both HT 29 and liposarcoma cells, the fat droplets in HT 29 cells are smaller than those that fill the cytoplasm of the liposarcoma cells. 3T3-L1 fibroblasts differentiate into adipocytes in the presence of insulin (Table VII). In the absence of biliverdin, this hormone increases the triacylglycerol content of 3T3-L1 fibroblasts by 3-fold relative to control. When biliverdin is added, a progressively greater content of triacyl glycerol is achieved at day 9. The increase is dependent on the biliverdin concentration. At the highest concentration used, 4×10^−7 M, there is a 5.8-fold increase of triacyl glycerol content over that of the undifferentiated fibroblasts (Table VII). This almost doubles the amount in the cells incubated with differentiation medium alone and is nearly as high as observed with troglitazone. At a lower biliverdin concentration, 10^−8 M, there is a 3.5-fold increase compared to control values. Remarkably, the amounts of biliverdin required to achieve the effects on proliferation, cell cycle and differentiation marker up-regulation, i.e. 10^−7-10^−06 M, are the same as those needed to re-establish the capacity of embryos depleted of the tetrapyrrole by treatment with UV-light to form a dorsal axis.

[6] = system: UV-irradiated Xenopus laevis stage 1 embryos; test: Rescue of dorsal axis formation in UV-irradiated embryos, scored by dorsal anterior index (DAI); format: in vivo
Protocol: as §1
The biological activities of biliverdin and its derivatives were tested by adding each of them to the incubation solution of embryos after the termination of the UV light exposure to either 254 or 366 nm UV light and at selected time periods between T ƒfm=0.4-2.5. Final concentrations of biliverdin ranged from 0.05 to 5 μM in less than 1% ethanol. […] An extinction coefficient of 51,000 was utilized to calculate their concentrations. All petri dishes were covered with aluminum foil to avoid light exposure. The extent of dorsal axis formation was analyzed by the morphological criteria described above.
Stage 1 embryos were exposed to UV-light source emitting at 366 nm (Mineralight UVSL-58, Ultraviolet Products, Inc., San Gabriel, Calif.) as described and then incubated in the presence of pure candidate DCD or commercially available biliverdin (Sigma-Aldrich, St. Louis, Mo.) at final concentrations from 0.05 to 1.2 μM in less than 1% ethanol. The concentrations were calculated using a molar extinction coefficient of 51,000. One group of embryos was not exposed to UV light but was incubated in the presence of 0.5 μM of candidate DCD.

[7] = system: T-lymphoblast (LT) cells; test: Proliferation of T-lymphoblast cells; format: cell-based, mouse
[8] = UV exposed embryos incubated with the intact tetrapyrrole

SMILES: C=CC1=C(C)/C(=C/C2=NC(=C\c3[nH]c(/C=C4\NC(=O)C(C)=C4C=C)c(C)c3CCC(=O)O)/C(CCC(=O)O)=C2C)NC1=O [Biliverdin, biliverdin IXα]
- use of the retinoid signaling system (RAR or RXR) [1]: does not use
- day after which division resumes at markedly reduced rate [2]: > 3 days
- division slower than control [2]: 3.3 times
- time until proliferation ceases [2]: within one day
- average DAI of control embryos [3]: 5
- % Change of TAG [4]: 154%
- TAG ([4]; control 68): 105 µg/10^6 cells
- increase of triacyl glycerol content over undifferentiated fibroblasts ([5]; biliverdin 4×10^−7 M, day 9): 5.8 fold
- increase of triacyl glycerol content compared to control values ([5]; biliverdin 10^−8 M): 3.5 fold
- embryos scored with a DAI between 5-4 ([6]; 254 nm UV light, treated with biliverdin): About 51%
- concentration at which plateau of recovery is reached ([6]; 254 or 366 nm UV light, FIG. 3C): 1.2 µM
- recovery of dorsal axial structures ([6]; 254 or 366 nm UV-irradiated embryos, μM amounts): recover to form dorsal axial structures
- embryos that recover and are scored with 4-5 ([6]; 366 nm UV light, incubated with biliverdin): ~55%
- embryos that do not develop dorsal structures, DAI of 0 [6, 8]: 20 to 30%
- tadpoles that develop with DAI scores of 5 or 4 [6, 8]: About 55%
- degree of recovery of dorsal axis formation relative to oocyte biliverdin ([6]; UV-irradiated embryos, FIG. 2E): comparable
- Average DAI score ([6]; embryos irradiated with 254 nm UV light, treated with biliverdin, DAI 5 normal, 0 adorsal): 2.72
- Average DAI score ([6]; embryos irradiated with 366 nm UV light, incubated with biliverdin, total population): 3.08
- time until proliferation ceases [7]: within one day
- time until cell division resumes at nearly the control rate ([7]; still exposed): 3 to 4 days
